Results on two compounds are retold here after patent US20100093642A1, “NOVEL POLYPEPTIDES” (priority 2006, published 2010).

≈ marks a conversion by molar mass, not a printed value. Residues, ends and D or L forms follow the SMILES beside them. No end group written: not given here.

In general, CC50 refers to the concentration that lowers cell viability or growth by half. Read a high CC50 as lower toxicity to the cells. The IC50 is the concentration needed to halve the response being measured.

The test system of one data set is Rhodotorula sp. The following applies: 48 h. The gist of the method:
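Broth microdilution in half-strength potato dextrose broth, final 2×10^5 spores per ml, peptides in two-fold dilutions from 50 μM to 0.1 μM final. Incubated in the dark without shaking at 25° C. (37° C. for C. albicans) for 48 h; MIC is lowest concentration giving 50% inhibition of visible growth, scored microscopically.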

The nature of the next data set: in vitro. Type of data set: cell-based, human. The following applies: human. On the procedure: The toxicity of test peptides on THP-1 cells was measured using the MIT method (Mosmann, 1983), with minor modifications. To induce monocyte-macrophage differentiation, THP-1 cells were cultured in 96-well culture plates (10^6 cells/well) in a volume of 100 μl RPMI 1640 medium, containing 50 ng/ml PMA (which is known to induce the maturation of monocytes) and incubated in a humidified atmosphere of 5% CO2 at 37° C. for 48 hours. The medium was then removed and the cells were washed with PBS, added 100 μl fresh medium (without PMA) and incubated for another 24 hours. Medium was removed and the adherent macrophages were treated with 100 μl of peptide solution (concentrations ranging from 0 to 800 μg/ml), diluted in RPMI-1640 assay medium without FBS. After incubation at 37° C. for 1 hour, the cells were added LPS (0.1 μg/ml) and further incubated for 4 hours. Cells treated with Triton X-100 (1%) were used as positive control (100% killing) whereas cells plus medium only were used as negative control. Following the incubation period, 10 μl MTT (5 mg/ml) dissolved in phosphate-buffered saline (PBS) was added to each well, and the plate was further incubated for 2 hours. A volume of 70 μl of the supernatant was then removed and 100 μl acid alcohol (0.04 M HCl in isopropanol) added to each well to dissolve the dark blue crystals. The plate was placed on a shaker for 1 hour at room temperature and read spectrophotometrically at 595 nm in a microtiter plate reader (DTX880 Multimode Detector, Beckman Coulter). Cell survival (%) was then determined from the ΔA595 nm relative to negative control (100% living cells) and expressed as 50% inhibitory concentration (IC50). The IC50 values were estimated from the dose-response curves, which were obtained by averaging at least 3 parallel experiments.

Data set [1] relates to murine B lymphoma (reticulum cell sarcoma) cell line A20. Type of data set: cell-based. The following applies: 4 h. As for the experimental part:
The cytotoxic effects of the peptides on different human tumour cells were measured using the MTT colorimetric assay (Mosmann, 1983). MIT (3-(4-5-dimethylthiazol-2-yl)-2,5-diphenyl tetrazolium bromide) is a soluble tetrazolium salt yielding a yellow solution when prepared in media or salt solutions lacking phenol red. Dissolved MIT is converted to an insoluble purple formazan by cleavage of the tetrazolium ring by dehydrogenase enzymes. This water insoluble formazan can be solubilized using isopropanol or other solvents and the dissolved material is measured spectrophotometrically. The absorbance was measured as a function of concentration of converted dye. The conversion of the soluble dye to the insoluble purple formazan is utilized in assays for measurement of cell proliferation. […] We used this assay to measure the degree of cell death caused by the peptides.
CT26 and A20 were maintained in RPMI-1640 medium supplemented with 10% heat inactivated FBS and 1% L-glutamine in a humidified atmosphere of 5% CO2 at 37° C. The human embryonic fibroblast cell line, MRC-5, was cultured as a monolayer in MEM medium, under the same conditions as described for the tumour cell lines. CT26 and MRC-5 cells to be used in the assay were grown to a minimum of 75% confluency, trypsinated and split to single cell suspension, counted and centrifuged at 1500 rpm for 7 min. The cell pellet was resuspended to a concentration of 1-2×10^5 cells/ml in RPMI-1640 medium without FBS and L-glutamine-L-alanine (assay-medium). The A20 cells were grown in suspension and adjusted to a concentration of 6×10^5 cells/ml in assay medium. All cell lines were routinely tested for mycoplasma infection using a PCR-based mycoplasma detection kit (MycoSensor PCR Assay Kit, Stratagene), following the supplier's instructions. All cell lines were mycoplasma free.
The cytotoxicity was measured using the MTT method (Mosmann, 1983), with minor modifications. The adherent cells (CT26 and MRC-5) were applied in 96-well culture plates in a volume of 100 μl assay medium and incubated at 37° C. for 24 hours. The A20 cells were applied to the microtiter plates just prior to testing. The medium was removed and the cells were treated with 100 μl of peptide solution (concentrations ranging from 0 to 400 μg/ml), diluted in serum-free medium, and the plates were incubated at 37° C. for 4 hours. Cells treated with Triton X-100 (1%) were used as positive control (100% killing) whereas cells plus medium only were used as negative control. Following the incubation period, 10 and 20 μl MTT (5 mg/ml, dissolved in PBS) were added to each well in the adherent cells (CT26 and MRC-5) and the A20 cells, respectively. After further incubation for 2 hours, a volume of 70 μl of the supernatant was removed and 100 μl acid alcohol (0.04 M HCl in isopropanol) added to each well in the adherent cell lines. For the cells grown in suspension (A20), a volume of 130 μl of the supernatant was removed and 100 μl acid alcohol was added. The plates were placed on a shaker for 1 hour at room temperature and read spectrophotometrically at 590 nm in a microtiter plate reader (Thermomax Molecular devices, New Jersey, USA). Cell survival (%, averaging at least 2 parallels) and IC50 values were estimated as described above.

On to `CC[C@H](C)[C@H](NC(=O)CNC(=O)[C@H](CO)NC(=O)[C@H](CCCCN)NC(=O)[C@@H](NC(=O)[C@H](C)NC(=O)[C@H](Cc1c[nH]cn1)NC(=O)[C@H](CO)NC(=O)[C@@H](NC(=O)[C@H](CCCCN)NC(=O)[C@H](Cc1c[nH]cn1)NC(=O)[C@H](Cc1ccccc1)NC(=O)[C@@H](NC(=O)[C@H](CCCCN)NC(=O)[C@H](CCCCN)NC(=O)[C@H](Cc1ccccc1)NC(=O)C(Cc1c[nH]c2ccc(Br)cc12)NC(=O)CN)[C@@H](C)O)C(C)C)C(C)C)C(=O)N[C@@H](Cc1c[nH]cn1)C(=O)N[C@@H](C)C(=O)NCC(=O)N[C@@H](CCC(N)=O)C(=O)N[C@@H](CCCNC(=N)N)C(=O)NCC(=O)N[C@@H](CS)C(=O)N[C@@H](CO)C(=O)N[C@@H](C)C(=O)N[C@@H](CC(C)C)C(=O)NCC(=O)N[C@@H](Cc1ccccc1)C(=O)O` (stereo partly drawn) [P17 HC-Br] (HELM PEPTIDE1{G.[O=C(C(Cc1c[nH]c2ccc(Br)cc12)N[*:1])[*:2]].F.K.K.T.F.H.K.V.S.H.A.V.K.S.G.I.H.A.G.Q.R.G.C.S.A.L.G.F}$$$$V2.0), for which the “Minimal inhibitory concentration (MIC), Rhodotorula sp.” value in the data set on Rhodotorula sp. amounted to 3.12 µM (≈ 10.4 µg/mL). Besides, the CC50 at 5 h in “in vitro” came to 51.1 µM. In addition, the IC50 in data set [1] was determined as 24.1 µM.

Turning to GWFKKTFHKVSHAVKSGIHAGQRGCSALGF [P17 HC], in the data set on Rhodotorula sp., the “Minimal inhibitory concentration (MIC), Rhodotorula sp.” value was 3.12 µM. Moreover, the CC50 at 5 h in the data set “in vitro” is 38 µM. Besides, half-maximal inhibition in data set [1] (IC50) required 3.9 µM.
